This note sets out measurements from US20210198277A1, “AMINE-SUBSTITUTED ARYL OR HETEROARYL COMPOUNDS” (Epizyme, Inc., priority 2016, published 2021).

Some results are limits rather than exact numbers.

The target of the assay is T1, EHMT2 (Homo sapiens, UniProt Q96KQ7).
T1 construct: host or cells: MDA-MB-231
T1 sequence (Q96KQ7 1-1210): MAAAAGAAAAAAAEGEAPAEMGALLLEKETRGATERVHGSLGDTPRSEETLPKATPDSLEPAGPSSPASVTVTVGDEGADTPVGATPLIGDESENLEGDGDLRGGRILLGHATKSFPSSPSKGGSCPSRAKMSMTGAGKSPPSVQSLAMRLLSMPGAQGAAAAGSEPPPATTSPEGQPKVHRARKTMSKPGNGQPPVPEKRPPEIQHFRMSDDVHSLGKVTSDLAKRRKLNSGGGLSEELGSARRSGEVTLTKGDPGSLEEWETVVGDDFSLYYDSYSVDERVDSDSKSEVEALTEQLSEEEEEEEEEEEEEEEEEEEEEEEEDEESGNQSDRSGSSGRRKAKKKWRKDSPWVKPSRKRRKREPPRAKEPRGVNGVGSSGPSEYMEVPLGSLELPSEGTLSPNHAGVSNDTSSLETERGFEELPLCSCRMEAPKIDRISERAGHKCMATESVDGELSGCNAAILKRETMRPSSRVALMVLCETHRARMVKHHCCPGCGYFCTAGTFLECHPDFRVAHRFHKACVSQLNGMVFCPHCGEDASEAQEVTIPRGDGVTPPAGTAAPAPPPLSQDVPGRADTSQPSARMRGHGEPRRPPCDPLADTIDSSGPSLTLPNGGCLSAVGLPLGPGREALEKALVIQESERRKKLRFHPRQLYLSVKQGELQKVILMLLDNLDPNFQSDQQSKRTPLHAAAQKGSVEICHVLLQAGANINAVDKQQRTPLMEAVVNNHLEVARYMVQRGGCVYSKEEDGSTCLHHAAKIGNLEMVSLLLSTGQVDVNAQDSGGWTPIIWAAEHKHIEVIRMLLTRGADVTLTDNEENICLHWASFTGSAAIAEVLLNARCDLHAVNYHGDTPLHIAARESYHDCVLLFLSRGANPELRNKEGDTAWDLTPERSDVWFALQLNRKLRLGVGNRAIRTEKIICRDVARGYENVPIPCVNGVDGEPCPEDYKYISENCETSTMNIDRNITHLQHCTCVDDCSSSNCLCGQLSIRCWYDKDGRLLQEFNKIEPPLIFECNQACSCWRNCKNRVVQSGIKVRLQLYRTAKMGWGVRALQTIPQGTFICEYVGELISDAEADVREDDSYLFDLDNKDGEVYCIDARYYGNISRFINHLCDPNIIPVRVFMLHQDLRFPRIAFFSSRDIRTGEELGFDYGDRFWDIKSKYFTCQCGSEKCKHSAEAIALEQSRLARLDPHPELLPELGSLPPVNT
Kind of assay: MDA-MB-231 H3K9me2 in-cell Western assay (EHMT2 ICW). Format: cell-based. To be noted: Table VI; read-out: EHMT2 ICW IC50. An outline of the steps:
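For 48 h at 37 °C, breast cancer MDA-MB-231 cells were incubated with compound, then fixed and immunostained for H3K9me2, with DRAQ5 used for normalisation. Each well's signal ratio yielded percent inhibition, and IC50 values were derived by fitting a four-parameter curve.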

In the case of `CNc1cc(C)nc(Nc2cc(OCCCN3CCCC3)c3[nH]nnc3c2)n1` [Compound 624], the IC50 lay in the range of 1000 to 10000 nM.

For the compound `CNc1nc2cc(OCCCN3CCCC3)c(OC)cc2cc1F` [Compound 897], the IC50 is greater than 10000 nM.

For `CNc1cc(C)nc(Nc2cnc(OC)c(OC[C@@H](O)CN3CCCC3)c2)n1` [Compound 881], the IC50 is 100 to 1000 nM.

As to `COc1ncc(Nc2nc(C)cc(NCC3COC3)n2)cc1OC[C@@H](O)CN1CCCC1` [Compound 883], the IC50 is greater than 10000 nM.

Turning to `CNC(=O)CCNc1cc(C)nc(Nc2cnc(OC)c(OCCCN3CCCC3)c2)n1` [Compound 887], the IC50 lay within 1000 to 10000 nM.

On to `COc1cc2cc(F)c(C)nc2cc1OCCCN1CCCC1` [Compound 896], for which the IC50 is greater than 10000 nM.

As to `CNC[C@H](COc1cc(Nc2nccc(NC)n2)ccc1OC)OC` [Compound 921], the IC50 is greater than 10000 nM.

With `CCNc1cc(C2CCOCC2)c2cc(OC)c(OCCCN3CCCC3)cc2n1` [Compound 865], the IC50 fell in the range of 100 to 1000 nM.

Take `CNc1ccnc(Nc2ccc(OC)c(OCC(C)(O)CN3CCC3)c2)n1` (stereo not shown) [Compound 1005]: the IC50 was 1000 to 10000 nM.

As to `CNc1cc(C)nc(Nc2cnc(OC)c(OC[C@H](O)CN3CCC3)c2)n1` [Compound 963], the IC50 was in the range of 100 to 1000 nM.

Take `COc1ncc(Nc2nc(C)cc(NCC3COC3)n2)cc1OC[C@H](O)CN1CCCC1` [Compound 884]: the half-inhibitory concentration (IC50) is greater than 10000 nM.

Take `CNc1cc(C)nc(Nc2cc(OCCCN3CCCC3)c3ncnn3c2)n1` [Compound 623]: the IC50 fell in the range of 1000 to 10000 nM.

`CCN1CCC(O)(COc2cc(Nc3nccc(NC)n3)ccc2OC)C1` (stereo not shown) [Compound 1006]: the concentration for half-maximal inhibition (IC50) was 100 to 1000 nM.

As to `CNCCC(C)Oc1cc(Nc2nccc(NC)n2)ccc1OC` (stereo not shown) [Compound 1011], the IC50 fell in the range of 1000 to 10000 nM.

With `COc1cc2c(C3CCN(C)CC3)nc(N3CCCC3)nc2cc1OCCCN1CC(O)C1` [Compound 950], the IC50 fell in the range of 1000 to 10000 nM.

Take `CNC(=O)C1CCN(c2cc3nc(NC)cc(C)c3cc2OC)C1` (stereo not shown) [Compound 900]: the IC50 was 100 to 1000 nM.

Regarding `CNc1ccnc(Nc2ccc(OC)c(OC[C@@H]3CN(C)CCO3)c2)n1` [Compound 936], the IC50 was greater than 10000 nM.

For the compound `CNS(=O)(=O)CCNc1cc(C)nc(Nc2ccc(OC)c(OCCCN3CCCC3)c2)n1` [Compound 892], the IC50 lay in the range of 1000 to 10000 nM.

On to `CNc1cc(C2CCN([C@@H]3CCOC3)CC2)c2cc(OC)c(OCCCN3CCCC3)cc2n1` [Compound 866], for which the IC50 was less than 100 nM.

Consider `COc1cc2c(C3CCN([C@H]4CCOC4)CC3)cc(C)nc2cc1OCCCN1CCCC1` [Compound 864], for which the IC50 was 100 to 1000 nM.

`CNc1cc(C)nc(Nc2ccc(CNC(=O)c3ccccc3)c(OC)c2)n1` [Compound 876]: the IC50 was greater than 10000 nM.

In the case of `CNc1cc(C)nc(Nc2ccc(OC)c(OC[C@H](O)CN3CC(C)C3)c2)n1` [Compound 985], the IC50 was 100 to 1000 nM.

`CNc1cc(C2CCOCC2)c2cc(OC)c(OCCCN3CC(O)C3)cc2n1` [Compound 902]: the IC50 is 100 to 1000 nM.

In the case of `CNc1cc(C)nc(Nc2ccc(OC)c(OCCCc3nc(Cl)c[nH]3)c2)n1` [Compound 890], the IC50 is greater than 10000 nM.

Turning to `CNc1cc(C)nc(Nc2ccc(OC)c(CNCCN3CCC3)c2)n1` [Compound 965], the IC50 was less than 100 nM.

`CNc1ccnc(Nc2ccc(OC)c(OCCC(C)N3CCC3)c2)n1` (stereo not shown) [Compound 1014]: the 50% inhibitory concentration (IC50) was 1000 to 10000 nM.

For `CNc1ccnc(Nc2ccc(OC)c(OCCC(C)NC)c2)n1` (stereo not shown) [Compound 1016], the IC50 was 1000 to 10000 nM.

Turning to `COc1cc2cc(C#N)c(C)nc2cc1OCCCN1CCCC1` [Compound 895], the IC50 is greater than 10000 nM.

As to `CNc1cc(C)nc(Nc2cc(OC[C@H](O)CN3CCCC3)c(OC)cn2)n1` [Compound 886], the IC50 is greater than 10000 nM.

As for `CNc1cc(C)nc(Nc2ccc(OC)c(OCCCc3nc(Cl)cn3C)c2)n1` [Compound 891], the half-maximal inhibitory concentration (IC50) was greater than 10000 nM.

Regarding `CNc1cc(C)nc(Nc2ccc(OC)c(C#CCN3CCOCC3)c2)n1` [Compound 904], the IC50 was greater than 10000 nM.

With `CNc1ccnc(Nc2cnc(OC)c(OCCCN3CCC3)c2)n1` [Compound 914], the IC50 is 100 to 1000 nM.

For the compound `CNC(=O)N1CC(CNc2cc(C)nc(Nc3cnc(OC)c(OCCCN4CCCC4)c3)n2)C1` [Compound 888], the IC50 was greater than 10000 nM.

Take `CNC[C@@H](O)COc1cc(Nc2nccc(NC)n2)cnc1OC` [Compound 918]: the IC50 was in the range of 1000 to 10000 nM.

`CNc1cc(C)nc(Nc2ccc(OC)c(C(=O)NC3CCN(C)CC3)c2)n1` [Compound 873]: the IC50 is greater than 10000 nM.

As to `CNc1cc(C)nc(Nc2c[nH]c(=O)c(OCCCN3CCCC3)c2)n1` [Compound 621], the IC50 was greater than 10000 nM.

As for `CNc1ccnc(Nc2ccc(OC)c(OC[C@@H]3CCN(C4CC4)C3)c2)n1` [Compound 928], the IC50 is less than 100 nM.

As for `COc1cnc(Nc2cc(NCC3COC3)cnn2)cc1OCCCN1CCCC1` [Compound 894], the IC50 is greater than 10000 nM.

For `CNCCCOc1cc(Nc2nccc(NC)n2)cnc1OC` [Compound 917], the IC50 fell in the range of 1000 to 10000 nM.

On to `CNc1cc(C)nc(Nc2ccc(OC)c(OC[C@@H](O)CN3CCCC3)c2)n1` [Compound 905], for which the IC50 was 100 to 1000 nM.

With `CNc1ccnc(Nc2cnc(OC)c(OC[C@@H]3CCN(C)C3)c2)n1` [Compound 912], the IC50 fell in the range of 100 to 1000 nM.

For the compound `CNc1ccnc(Nc2ccc(OC)c(OC[C@H](O)CN3CCC3)c2)n1` [Compound 908], the IC50 is 100 to 1000 nM.

In the case of `CNc1ccnc(Nc2ccc(OC)c(OC[C@H]3CN(C)CCO3)c2)n1` [Compound 931], the IC50 was greater than 10000 nM.

Regarding `CNc1ccnc(Nc2ccc(OC)c(OC[C@@H](O)CN3CCC3)c2)n1` [Compound 907], the IC50 is 1000 to 10000 nM.

In the case of `CNCC(C)COc1cc(Nc2nccc(NC)n2)ccc1OC` (stereo not shown) [Compound 1009], the 50% inhibitory concentration (IC50) lay within 1000 to 10000 nM.

On to `CNCCCOc1cc(Nc2nccc(NC)n2)ccc1OC` [Compound 916], for which the concentration for half-maximal inhibition (IC50) was in the range of 1000 to 10000 nM.

For `CNc1ccnc(Nc2ccc(OC)c(OC[C@H]3CNCCO3)c2)n1` [Compound 933], the IC50 was greater than 10000 nM.

Turning to `COc1cnc(Nc2cccc3[nH]nnc23)cc1OCCCN1CCCC1` [Compound 619], the IC50 was greater than 10000 nM.

`CNC[C@@H](COc1cc(Nc2nccc(NC)n2)ccc1OC)OC` [Compound 922]: the IC50 was greater than 10000 nM.

With `CNc1cc(C)nc(Nc2ccc(OC)c(OC[C@H](O)CNC3CCC3)c2)n1` [Compound 962], the IC50 is 1000 to 10000 nM.

Regarding `CCN1CC[C@@H](COc2cc(Nc3nccc(NC)n3)ccc2OC)C1` [Compound 927], the IC50 is 100 to 1000 nM.

For `CNc1ccnc(Nc2ccc(OC)c(OC[C@@H](CN3CCCC3)OC)c2)n1` [Compound 919], the IC50 is greater than 10000 nM.

Consider `CCN1CCO[C@@H](COc2cc(Nc3nccc(NC)n3)ccc2OC)C1` [Compound 932], for which the IC50 is greater than 10000 nM.

With `CNc1cc(C2CCN([C@H]3CCOC3)CC2)c2cc(OC)c(OCCCN3CCCC3)cc2n1` [Compound 867], the IC50 is less than 100 nM.

Regarding `COc1ccc(Nc2nc(C)cc(NCCS(=O)(=O)N(C)C)n2)cc1OCCCN1CCCC1` [Compound 893], the IC50 fell in the range of 100 to 1000 nM.

On to `CNc1cc(C)nc(Nc2ccc(OC)c(OC[C@H](O)CN3CC(F)C3)c2)n1` [Compound 986], for which the IC50 lay within 1000 to 10000 nM.

As for `COc1ccc(Nc2nc(C)cc(C3CCOCC3)n2)cc1OCCCN1CCCC1` [Compound 870], the IC50 is greater than 10000 nM.

For the compound `CNc1cc(C)nc(Nc2ccc(OC)c(OCC(O)CN3CCCC3)c2)n1` (stereo in doubt) [Compound 906, (2S)-1-(2-methoxy-5-[[4-methyl-6-(methylamino)pyrimidin-2-yl]amino]phenoxy)-3-(pyrrolidin-1-yl)propan-2-ol], the IC50 was 100 to 1000 nM.

For the compound `CNc1cc(C)nc(Nc2cc(OCCCN3CCCC3)c3nncn3c2)n1` [Compound 622], the IC50 is greater than 10000 nM.

`CNc1cc(C)nc(Nc2cnc(OC)c(OC[C@H](O)CN3CCCC3)c2)n1` [Compound 882]: the IC50 lay in the range of 1000 to 10000 nM.

For `CNCCNCc1cc(Nc2nc(C)cc(NC)n2)ccc1OC` [Compound 964], the IC50 lay within 1000 to 10000 nM.

In the case of `CNc1cc(C)nc(Nc2cc(OC[C@@H](O)CN3CCCC3)c(OC)cn2)n1` [Compound 885], the IC50 was greater than 10000 nM.

Take `CNc1ccnc(Nc2ccc(OC)c(OC[C@H](C)CN3CCC3)c2)n1` [Compound 945]: the IC50 was in the range of 100 to 1000 nM.

Turning to `CNc1nc2cc(OCCCN3CCCC3)c(OC)cc2cc1Cl` [Compound 903], the half-maximal inhibitory concentration (IC50) was in the range of 1000 to 10000 nM.
